The values below come from PubChem BioAssay AID493240 (Broad Institute, 2011).

The structures appear in SMILES notation.

What is called AC50 is the midpoint of the concentration-response curve, whichever way the signal moves.

The experiment relates to SK-MEL-5 viability, ATP luminescence (CellTiter-Glo), 24 h. The experiment is described as follows: cytotoxicity in parental SK-MEL-5 melanoma cells – cell-based, CellTiter-Glo, cherry-picked, set 3, orthogonal assay for MITF inhibitor project, dose response (AID 493240). (In general: ATP-based viability assays read luminescence as a measure of living cells.)
For the compound `Cc1ccc(C(C)C)c(OCc2nn(CC(=O)c3ccc(Cl)cc3)c3[n+]2CCCCC3)c1`, the AC50 was 18.4 µM. Then `COCCN(CC(=O)NC1CCCCC1)C(=O)/C=C/C(=O)c1ccc(OC)cc1O`, with 10.5 µM; and `COc1cccc(CNCCc2c[nH]c3ccccc23)c1OCc1ccccc1`, with 16.8 µM. Then `CC1(C)CC(NC(=O)c2ccc(Cl)c(S(=O)(=O)N(Cc3ccccc3)c3ccccc3)c2)CC(C)(C)N1`, with 23.3 µM; and `CC1CCC(C(C)C)C(OC(=O)Cn2c(-c3ccc(Cl)cc3)[n+](C)c3ccccc32)C1` (stereo not drawn), with 10.4 µM; and `O=C(N/N=C/c1ccc(F)cc1)c1c(O)c2ccccc2[nH]c1=O`, with 26.9 µM. Then `CC(C)(C)c1ccc(Cn2c(=N)n(CC(O)c3ccco3)c3ccccc32)cc1` (stereo not drawn), with 19.9 µM; and `Cc1ccc(C#CC[N+]2(CC#Cc3ccc(C)cc3)CCCCC2)cc1`, with 16 µM; and `CC1CCCC(NCC(O)COC(c2ccc(F)cc2)c2ccc(F)cc2)C1C` (stereo not drawn), with 20.9 µM. Regarding `Cc1ccc(S(=O)(=O)N2CCCCC2)cc1NC(=O)Cn1ncc(Cl)c(Cl)c1=O`, the AC50 is 19.3 µM.

`CC(=O)Nc1sc(C)c(C)c1C(=O)OCC(=O)N(CC(C)C)c1c(N)n(Cc2ccccc2)c(=O)[nH]c1=O`: the AC50 was 8.38 µM. Under `Cc1[nH]nc2nc(SCC(=O)NCCC3=CCCCC3)n(-c3ccc(Br)cc3)c(=N)c12` stands 21.5 µM; under `N=c1n(CC(=O)c2ccc([N+](=O)[O-])cc2)c2ccccc2n1Cc1ccc(Cl)cc1`, 16.9 µM. Then `CN1CCN(C2=C(NS(=O)(=O)c3ccccc3)C(=O)c3ccccc3C2=O)CC1`, with 16.9 µM; and `COc1cc(CNC2CCCC2)cc(Cl)c1OCc1ccccc1Cl`, with 16.8 µM.

In the case of `O=C(Cn1ncc(Cl)c(Cl)c1=O)NC1CCCCC1`, the AC50 was 20.5 µM. As to `CN(C)S(=O)(=O)c1ccc(-c2csc(N/N=C/c3ccco3)n2)cc1`, the AC50 was 16.2 µM.

As to `O=C1C(Cl)=C(N2CCN(c3ccccc3[N+](=O)[O-])CC2)C(=O)c2ccccc21`, the AC50 was 10.8 µM. Then `CC1CCC(C(C)C)C(OC(=O)Cn2c(-c3ccc(F)cc3)[n+](C)c3ccccc32)C1` (stereo not drawn), with 8.02 µM; and `Cc1c(C(=O)Nc2ccc(S(=O)(=O)N(C)C3CCN(C)CC3)cc2)oc2c(Cl)cccc12`, with 29.4 µM; and `O=C(COc1ccccc1)N/N=C/c1ccc([N+](=O)[O-])o1`, with 22.9 µM. Then `Cc1cc2oc3ccc(NCCC4CCCN4C)cc3c(=O)c2cc1C` (stereo not drawn), with 17.6 µM; and `Cc1cc(C(C)(C)C)cc(C)c1Cn1c2[n+](c3ccc(C(F)(F)F)cc31)CCCCC2`, with 16 µM; and `Cc1ccc2sc(N(CCCN(C)C)C(=O)c3ccc(S(=O)(=O)N(C)C4CCCCC4)cc3)nc2c1C`, with 26.7 µM. `CCOC(=O)c1c(C)oc2c1C(=O)c1ccccc1C2=O`: the half-maximal activity concentration (AC50) is 3.37 µM. Under `Cc1ccc(C(=O)C[n+]2cc(-c3ccc(C)cc3)n3c2CCCCC3)cc1` stands 14.4 µM; under `O=C(Nc1ccc(N2CCN(C(=O)c3ccccc3)CC2)cc1)c1ccc([N+](=O)[O-])o1`, 28.3 µM.

On to `Cc1ccc(C(=O)N/N=C\c2ccc([N+](=O)[O-])s2)cn1`, for which the AC50 is 33.9 µM. Then `COc1ccccc1C(=O)Nc1nc(-c2ccc(S(=O)(=O)N3CCOCC3)cc2)cs1`, with 20.8 µM; and `CC(C)(C)c1ccc(-c2cn(-c3ccc(Br)cc3)c3[n+]2CCCS3)cc1`, with 11.4 µM; and `C#CC(=O)N(c1ccc(OC)c(OC)c1)C(C(=O)NC1CCCC1)c1cccs1` (stereo not drawn), with 22.1 µM. `Cc1ccc(Oc2c(C(N)=O)cc([N+](=O)[O-])cc2[N+](=O)[O-])cc1`: the AC50 was 21.8 µM.

With `N=c1n(CC(=O)c2ccc(Br)cc2)c2ccccc2n1Cc1ccccc1`, the AC50 was 18.1 µM.

In the case of `Cn1c(SCC(=O)N/N=C/c2ccc([N+](=O)[O-])s2)nnc1-c1ccccc1`, the AC50 was 21.5 µM. Then `COc1ccc(C(=O)/C=C/C(=O)N(CC(=O)NC2CCCCC2)CC2CCCO2)c(O)c1` (stereo not drawn), with 11.9 µM; and `COc1cc2c(cc1OC)C(c1ccccc1)N(C(=O)CCl)CC2` (stereo not drawn), with 22.6 µM.

As for `CCN1CCN(C2=C(NS(=O)(=O)c3ccc(Br)cc3)C(=O)c3ccccc3C2=O)CC1`, the AC50 was 22.9 µM.

`CCc1cc[n+](C2=C([O-])c3ccccc3C(=O)/C2=N\S(=O)(=O)c2cccs2)cc1`: the AC50 is 5.72 µM. Then `CC(C)(C)c1ccc(OCCn2ccccc2=O)cc1`, with 28.7 µM; and `CC(=O)Nc1ccc(Nc2c3ccccc3nc3ccccc23)cc1`, with 16.6 µM. Regarding `COc1ccc(C(=O)/C=C/C(=O)N(CC(=O)NC2CCCCC2)Cc2ccccc2)c(O)c1`, the half-maximal activity concentration (AC50) was 12.9 µM. Then `Cc1c(N=C2C=CC(=O)c3ccccc32)c(=O)n(-c2ccccc2)n1C`, with 30.9 µM; and `O=C1/C(=N\S(=O)(=O)c2cccs2)C([n+]2ccccc2)=C([O-])c2ccccc21`, with 5.27 µM; and `Cc1ccccc1-c1nc(CN2CCC(C(=O)NCCCN3CCCC(C)C3)CC2)c(C)o1` (stereo not drawn), with 28.9 µM. Under `CCOC(=O)CSC1=NC(=O)/C(=C/c2ccc(OC)cc2)S1` stands 28.5 µM; under `CS(=O)(=O)c1nc(-c2ccc(F)cc2)cc(C(F)(F)F)n1`, 20.3 µM; under `O=C(N/N=C/c1cccc2cccnc12)c1ccccc1O`, 32.9 µM.

For `COC(=O)c1c(NC(=O)c2nc3ccccc3s2)sc2c1CC(C)(C)NC2(C)C`, the AC50 is 22.1 µM. Under `Cc1ccc(NC(=O)c2ncn(CCCN[C@H](C)c3cccc4ccccc34)n2)cc1C` stands 25.8 µM; under `CC1=C(CC(=O)c2ccccc2)C(=O)c2ccccc2C1=O`, 7.67 µM; under `CCCCN1C=CC(=C2C(=O)c3ccccc3C2=O)C=C1`, 19.9 µM.

For the compound `CCN1CCN(CCCNC(=O)c2ccc3c(c2)NC(=O)/C(=C\c2cccc(C)c2)S3)CC1`, the AC50 is 20.3 µM. Under `CN(C)c1ccc(C2=NOC(CN3C(=O)c4ccccc4S3(=O)=O)C2)cc1` (stereo not drawn) stands under 0.015 µM; under `CCCN1CCC(NCc2cn(C)nc2-c2ccc(Oc3ccccc3)cc2)CC1`, 22.3 µM.

Take `CC(C)C1CC(CCNCc2ccc(N(C)C)cc2)(c2ccccc2)CCO1` (stereo not drawn): the AC50 was 21.9 µM.

For the compound `CCn1c(/C=C/N(C)c2ccccc2)[n+](CC)c2ccc(Cl)cc21`, the AC50 was 13.9 µM. Then `CCN(CC)S(=O)(=O)c1ccc(NC(=O)c2cccnc2Cl)c(NC(=O)c2cccnc2Cl)c1`, with 12.3 µM.

For `COC(=O)c1ccc2c(c1O)C(=O)c1ccccc1C2=O`, the AC50 was 3.74 µM. For the compound `Cc1ccc(NC2=C(Cl)C(=O)c3ccccc3C2=O)cc1`, the AC50 is 9.83 µM. Under `c1ccc2cc3c(NCCN4CCOCC4)ccnc3cc2c1` stands 3.68 µM. Then `Cc1ccc(C(=O)N/C(=C\c2ccc(-c3ccc(Br)cc3)o2)C(=O)NCCCN(C)C)cc1`, with 17.1 µM; and `Cc1cccc(NC2=C(NC(=O)c3ccccc3)C(=O)c3ccccc3C2=O)c1`, with 19.7 µM; and `O=C(Nc1ccc(S(=O)(=O)NC2=NCCCCC2)cc1)c1ccc([N+](=O)[O-])s1`, with 23 µM. Under `C=CCn1c(C)cc(C2=NNC(=NCC)SC2)c1C` stands 12.9 µM; under `COc1ccc(C(=O)/C=C/C(=O)N(CC(=O)NC2CCCCC2)Cc2cccs2)c(O)c1`, 20.5 µM.

Consider `COc1ccc(S(=O)(=O)N(C(C)=O)c2ccc(OC(C)=O)c3ccccc23)cc1[N+](=O)[O-]`, for which the AC50 is 17 µM. Turning to `Cc1ccc(C)c(NC(=O)/C(C#N)=C/c2cn(CC(=O)NCc3ccco3)c3ccccc23)c1`, the AC50 was 15.2 µM. Then `CN(C)CCNC(=O)/C(=C/c1ccc(-c2ccc(Cl)cc2Cl)o1)NC(=O)c1ccccc1`, with 19.4 µM. Under `CCOc1c(Br)cc(CNC2CCCCCCC2)cc1OC` stands 16.5 µM; under `COC(=O)C1=C(C)N(Cc2ccccc2)C(=NCC(C)C)N[C@H]1c1cccc(C(F)(F)F)c1`, 17.4 µM; under `CCN1CCN(c2ccc(NC(=O)c3ccc([N+](=O)[O-])o3)cc2Cl)CC1`, 24.8 µM.

For the compound `CCn1c(/C=C/Nc2ccccc2)[n+](CC)c2cc(Cl)c(Cl)cc21`, the AC50 is 28.7 µM. Under `O=c1c2ccccc2nc(/C=C/c2ccc([N+](=O)[O-])o2)n1-c1ccc(O)cc1` stands 14.9 µM. With `CC(=O)c1c(C)oc2c1C(=O)c1ccccc1C2=O`, the AC50 is 7.62 µM. Under `Cc1ccc(-n2cc(CNCCCn3cccn3)c(-c3cccc(C)c3)n2)cc1` stands 20.1 µM; under `O=C(NC1=C(Nc2ccc(Cl)cc2)C(=O)c2ccccc2C1=O)c1ccccc1`, 11.2 µM. For `COc1cc(NC(=O)COc2ccccc2[N+](=O)[O-])ccc1NC(=O)c1cccs1`, the AC50 was 26.4 µM. Under `COc1cc(SC)ccc1C(=O)Nc1nc(C)cs1` stands 28.4 µM. Then `CCCCn1c(=N)n(CC(=O)c2ccc(Br)s2)c2ccccc21`, with 18.5 µM; and `C#CC(=O)N(c1ccc(OC)cc1OC)C(C(=O)NC1CCCC1)c1cccs1` (stereo not drawn), with 19.9 µM. Under `COC1=C(Nc2ccccc2)C(=O)c2ccccc2C1=O` stands 5.11 µM; under `COc1ccc(-c2nn(-c3ccccc3)cc2/C=N/N=C(N)N)cc1OC`, 18 µM. Turning to `Oc1c(CN2CCCCC2)cc(COCc2ccccc2)c2cccnc12`, the AC50 is 16.9 µM.

In the case of `Cc1cc(C)c[n+](C2=C([O-])c3ccccc3C(=O)/C2=N\S(=O)(=O)c2cccs2)c1`, the AC50 was 15.4 µM. Under `Cc1oc(-c2ccc(Cl)cc2)nc1CN1CCC(C(=O)NCCCN2CCCC(C)C2)CC1` (stereo not drawn) stands 17.1 µM. In the case of `COc1ccc(-n2cc(-c3ccc(C)cc3)[n+]3c2SCC3)cc1`, the AC50 is 19.9 µM. Under `COc1cc(NC(=O)COc2cc(O)c3c(c2)OC(C)(C)CC3=O)cc(OC)c1OC` stands 23.4 µM; under `COc1ccc(-c2cc3c(nn2)-c2ccccc2C3=O)cc1`, 15 µM. Under `CCN(CC)CCn1nc2c3c(cccc3c1=O)-c1ccccc1-2` stands 20.3 µM; under `N=c1n(CCN2CCCC2)c2ccccc2n1CC(O)c1ccc(Cl)c(Cl)c1` (stereo not drawn), 16.3 µM; under `Cc1c(CCOC(=O)c2ccc(Cl)cc2Cl)sc[n+]1CC(=O)c1ccc(Br)cc1`, 28.8 µM.

Consider `O=C(Nc1ccccc1)NN(C(=O)CCl)c1ccccc1`, for which the AC50 is 28.7 µM. Under `CC1CCC/C=C/C(=O)c2c(O)cc(O)cc2CC(=O)O1` (stereo not drawn) stands 31.7 µM.
